The term pIC50 denotes the IC50 on a negative log10 scale, so that one unit is a factor of ten.

The record followed here is ChEMBL document CHEMBL3997846, “Synthesis and activity of nucleoside-based antiprotozoan compounds” (Bioorg Med Chem, 2017).

Structures are written as SMILES. pIC50: −log10 of the molar value.

The nature of data set [1]: Selectivity index, ratio of IC50 for rat L6 cells to IC50 for bloodstream forms of Trypanosoma brucei rhodesiense STIB900 trypomastigotes. In kind it is toxicity. The note with it: read-out: Ratio IC50.
A short description of data set [2]: Selectivity index, ratio of IC50 for rat L6 cells to IC50 for chloroquine resistant Plasmodium falciparum K1 erythrocytic stage. In kind it is toxicity. The note with it: read-out: Ratio IC50.
The test system of a further data set is Trypanosoma cruzi. Briefly: Antitrypanosomal activity against Trypanosoma cruzi Tulahuen strain C2C4 amastigote forms harboring LacZ infected in rat L6 cells after 96 hrs by CPRG/Nonidet reagent based photometric method. The class given is functional, cell-based. The note with it: Tulahuen strain C2C4, L6, 96 h.
For a further data set, the system named is L6. The experiment in a line: Cytotoxicity against rat L6 cells assessed as growth inhibition after 72 hrs by alamar blue assay. In kind it is cell-based. Conditions: L6, 72 h. In general terms: Alamar Blue is a resazurin reagent that responds to reducing activity.
The next data set deals with Plasmodium falciparum. Briefly: Antiplasmodial activity against chloroquine resistant Plasmodium falciparum K1 erythrocytic stage assessed as reduction in [3H]hypoxanthine incorporation after 48 hrs by liquid scintillation counting assay. The class given is functional.
The subject of data set [3] is Trypanosoma brucei rhodesiense. Briefly: Antitrypanosomal activity against bloodstream forms of Trypanosoma brucei rhodesiense STIB900 trypomastigotes after 72 hrs by alamar blue assay. In kind it is functional. The note with it: STIB900, 72 h.
Data set [4] is described as follows: Selectivity index, ratio of IC50 for rat L6 cells to IC50 for Leishmania donovani MHOM/SD/62/ISCL2D axenic amastigotes. The class given is toxicity. The note with it: read-out: Ratio IC50.
Another data set relates to Leishmania donovani. The experiment in a line: Antileishmanial activity against Leishmania donovani MHOM/SD/62/ISCL2D axenic amastigotes after 72 hrs by alamar blue assay. In kind it is functional.
Data set [5] in a line: Selectivity index, ratio of IC50 for rat L6 cells to IC50 for Trypanosoma cruzi Tulahuen strain C2C4 amastigote forms harboring LacZ infected in rat L6 cells. In kind it is toxicity, cell-based. The note with it: read-out: Ratio IC50.

With `CC(=O)O[C@@H]1[C@H](OC(C)=O)[C@@H](C[S+](C)[O-])O[C@H]1n1cnc2c(N)nc(Cl)nc21` (some centres not stated), the selectivity ratio was 2 in data set [1], 2 in [2], less than 0.7 in [4] and 2 in data set [5]. The pIC50 in the data set with Trypanosoma cruzi was 3.97; with L6, 3.77; with Plasmodium falciparum, 3.97; in [3] it was 3.97; in the data set with Leishmania donovani, less than 3.64.

Consider `CC(=O)O[C@@H]1[C@H](OC(C)=O)[C@@H](CN=[N+]=[N-])O[C@H]1n1cnc2c(N)nc(F)nc21`, for which the selectivity ratio was 0.8 in [1], 12 in data set [2], 0.5 in data set [4] and 0.5 in data set [5]. Besides, the pIC50 with Trypanosoma cruzi was 4.41; in the data set on L6, 4.74; in the data set with Plasmodium falciparum it was 5.82; in [3] it was 4.64; with Leishmania donovani, 4.48.

Regarding `CC(=O)O[C@@H]1[C@H](OC(C)=O)[C@@H](CN=[N+]=[N-])O[C@H]1n1cnc2c(N)nc(Cl)nc21`, the selectivity ratio in data set [1] worked out at 2; in [2], 11; in data set [4], 1; in data set [5], 2. Further, the pIC50 was 4.03 with Trypanosoma cruzi; 3.85 in the data set with L6; 4.89 in the data set with Plasmodium falciparum; 4.19 in data set [3]; 3.94 with Leishmania donovani.

For `CSC[C@H]1O[C@@H](n2cnc3c(N)nc(Cl)nc32)[C@H](OC(C)=O)[C@@H]1OC(C)=O`, the selectivity ratio came to 7 in data set [1], 18 in data set [2], 6 in data set [4] and 1 in data set [5]. Further, the pIC50 with Trypanosoma cruzi was 3.79; in the data set with L6 it was 3.67; in the data set on Plasmodium falciparum it was 4.92; in data set [3], 4.51; with Leishmania donovani it was 4.41.

For `CS(=O)(=O)C[C@H]1O[C@@H](n2cnc3c(N)nc(Cl)nc32)[C@H](O)[C@@H]1O`, the selectivity ratio in data set [1] was 1; in data set [2] it was 6; in data set [4] it was less than 0.6; in data set [5], 1. In addition, the pIC50 was 3.81 in the data set on Trypanosoma cruzi; 3.81 with L6; 4.60 in the data set with Plasmodium falciparum; 3.90 in [3]; less than 3.56 in the data set on Leishmania donovani.

`CC(=O)NC[C@H]1O[C@@H](n2cnc3c(N)nc(Cl)nc32)[C@H](OC(C)=O)[C@@H]1OC(C)=O`: the selectivity ratio was 2 in data set [1], 2 in data set [2], less than 0.8 in data set [4] and 2 in data set [5]. In addition, the pIC50 in the data set on Trypanosoma cruzi was 3.90; with L6 it was 3.72; with Plasmodium falciparum, 3.99; in data set [3] it was 3.95; in the data set with Leishmania donovani it was less than 3.64.

As for `CSC[C@H]1O[C@@H](n2cnc3c(N)nc(F)nc32)[C@H](OC(C)=O)[C@@H]1OC(C)=O`, the selectivity ratio in [1] turned out to be 0.6; in [2] it was 5; in [4] it was 0.8; in [5], 1. The pIC50 in the data set on Trypanosoma cruzi was 4.82; with L6, 4.82; with Plasmodium falciparum it was 5.55; in [3], 4.59; with Leishmania donovani, 4.74.

For the molecule `CC(=O)NC[C@H]1O[C@@H](n2cnc3c(N)nc(F)nc32)[C@H](OC(C)=O)[C@@H]1OC(C)=O`, the selectivity ratio in data set [1] was 1; in data set [2], 4; in data set [4], less than 0.6; in [5] it was 1. Besides, the pIC50 with Trypanosoma cruzi was 3.97; with L6, 3.86; in the data set with Plasmodium falciparum, 4.43; in [3], 3.94; with Leishmania donovani it was less than 3.62.
